Laboratory results published in US9273040B2 (Merck Sharp & Dohme Corp., priority 2011, dated 2016).

Experiments:
[1] = target: T1, human Nav1.5 channels stably expressed in HEK 293 cells (Homo sapiens, UniProt Q14524); experiment: PatchXpress 7000 automated patch-clamp, sodium current; type: cell-based; conditions: selectivity over Nav1.5
T1 construct: expressed in transfected cells
Method in brief: (§1)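 IC50 values came from Hill-equation fits of rundown-corrected inhibition. PatchXpress recordings at 22° C held cells 20 mV negative to V0.5 inact and applied 10 Hz trains of 30 ms steps to −20 mV (Nav1.7) or an 8000 ms prepulse 7 mV positive to V0.5 inact. […]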

[2] = target: T2, human Nav1.7 channels stably expressed in HEK 293 cells (Homo sapiens, UniProt Q15858); experiment: as above; type: cell-based; conditions: 22° C., read-out: potency for the Nav 1.7 sodium ion channel (as measured by PatchXpress)
T2 construct: expressed in transfected cells
Method in brief: as §1

T2 sequence (Q15858 whole entry): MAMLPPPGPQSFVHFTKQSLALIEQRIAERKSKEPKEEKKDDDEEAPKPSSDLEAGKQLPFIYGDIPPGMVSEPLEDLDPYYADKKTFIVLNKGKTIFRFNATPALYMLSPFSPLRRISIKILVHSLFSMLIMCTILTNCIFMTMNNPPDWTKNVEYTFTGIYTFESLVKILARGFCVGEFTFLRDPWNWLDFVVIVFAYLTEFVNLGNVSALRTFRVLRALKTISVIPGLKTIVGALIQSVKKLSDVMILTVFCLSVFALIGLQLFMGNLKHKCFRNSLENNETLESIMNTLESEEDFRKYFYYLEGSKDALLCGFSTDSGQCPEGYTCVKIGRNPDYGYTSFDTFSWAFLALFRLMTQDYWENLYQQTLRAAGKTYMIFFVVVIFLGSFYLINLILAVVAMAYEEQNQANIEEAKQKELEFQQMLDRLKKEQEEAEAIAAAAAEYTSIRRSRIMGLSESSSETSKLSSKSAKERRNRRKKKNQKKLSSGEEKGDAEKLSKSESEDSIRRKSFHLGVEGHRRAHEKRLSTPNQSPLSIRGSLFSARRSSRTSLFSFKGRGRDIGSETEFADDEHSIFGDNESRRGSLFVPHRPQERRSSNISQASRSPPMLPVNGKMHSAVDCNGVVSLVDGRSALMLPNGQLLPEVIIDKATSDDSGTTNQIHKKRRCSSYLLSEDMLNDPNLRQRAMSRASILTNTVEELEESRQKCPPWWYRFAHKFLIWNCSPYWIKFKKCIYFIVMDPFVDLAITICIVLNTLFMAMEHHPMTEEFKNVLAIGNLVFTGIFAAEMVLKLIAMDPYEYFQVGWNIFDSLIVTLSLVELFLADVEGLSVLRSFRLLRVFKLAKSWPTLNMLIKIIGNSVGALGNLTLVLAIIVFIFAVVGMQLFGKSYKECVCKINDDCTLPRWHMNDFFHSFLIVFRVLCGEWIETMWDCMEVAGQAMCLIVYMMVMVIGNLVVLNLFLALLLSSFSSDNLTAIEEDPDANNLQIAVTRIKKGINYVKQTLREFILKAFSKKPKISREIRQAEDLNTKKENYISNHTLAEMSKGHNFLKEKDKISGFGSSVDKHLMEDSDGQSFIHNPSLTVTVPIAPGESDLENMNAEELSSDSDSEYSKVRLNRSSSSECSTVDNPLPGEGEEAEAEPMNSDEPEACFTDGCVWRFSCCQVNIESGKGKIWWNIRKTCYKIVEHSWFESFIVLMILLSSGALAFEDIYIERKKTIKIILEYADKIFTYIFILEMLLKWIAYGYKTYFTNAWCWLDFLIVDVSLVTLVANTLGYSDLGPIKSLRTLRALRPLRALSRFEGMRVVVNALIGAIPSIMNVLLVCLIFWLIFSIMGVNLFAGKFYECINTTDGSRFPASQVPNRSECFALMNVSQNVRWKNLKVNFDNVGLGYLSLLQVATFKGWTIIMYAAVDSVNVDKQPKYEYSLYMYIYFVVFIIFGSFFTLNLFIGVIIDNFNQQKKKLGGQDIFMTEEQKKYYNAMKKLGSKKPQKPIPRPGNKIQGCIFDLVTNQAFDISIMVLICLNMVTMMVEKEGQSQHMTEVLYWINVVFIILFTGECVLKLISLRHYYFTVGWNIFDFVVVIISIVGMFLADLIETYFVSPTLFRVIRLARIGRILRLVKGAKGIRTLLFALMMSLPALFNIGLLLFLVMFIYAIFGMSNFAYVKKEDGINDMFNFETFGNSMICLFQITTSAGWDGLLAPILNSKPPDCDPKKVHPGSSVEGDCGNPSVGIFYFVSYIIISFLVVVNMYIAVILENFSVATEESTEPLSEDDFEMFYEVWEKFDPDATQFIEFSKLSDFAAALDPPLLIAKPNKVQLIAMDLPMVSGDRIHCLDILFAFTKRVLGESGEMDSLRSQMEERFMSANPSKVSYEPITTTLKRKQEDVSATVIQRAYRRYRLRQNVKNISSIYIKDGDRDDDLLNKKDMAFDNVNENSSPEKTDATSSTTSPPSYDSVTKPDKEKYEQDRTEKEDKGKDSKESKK
T1 sequence (Q14524 whole entry): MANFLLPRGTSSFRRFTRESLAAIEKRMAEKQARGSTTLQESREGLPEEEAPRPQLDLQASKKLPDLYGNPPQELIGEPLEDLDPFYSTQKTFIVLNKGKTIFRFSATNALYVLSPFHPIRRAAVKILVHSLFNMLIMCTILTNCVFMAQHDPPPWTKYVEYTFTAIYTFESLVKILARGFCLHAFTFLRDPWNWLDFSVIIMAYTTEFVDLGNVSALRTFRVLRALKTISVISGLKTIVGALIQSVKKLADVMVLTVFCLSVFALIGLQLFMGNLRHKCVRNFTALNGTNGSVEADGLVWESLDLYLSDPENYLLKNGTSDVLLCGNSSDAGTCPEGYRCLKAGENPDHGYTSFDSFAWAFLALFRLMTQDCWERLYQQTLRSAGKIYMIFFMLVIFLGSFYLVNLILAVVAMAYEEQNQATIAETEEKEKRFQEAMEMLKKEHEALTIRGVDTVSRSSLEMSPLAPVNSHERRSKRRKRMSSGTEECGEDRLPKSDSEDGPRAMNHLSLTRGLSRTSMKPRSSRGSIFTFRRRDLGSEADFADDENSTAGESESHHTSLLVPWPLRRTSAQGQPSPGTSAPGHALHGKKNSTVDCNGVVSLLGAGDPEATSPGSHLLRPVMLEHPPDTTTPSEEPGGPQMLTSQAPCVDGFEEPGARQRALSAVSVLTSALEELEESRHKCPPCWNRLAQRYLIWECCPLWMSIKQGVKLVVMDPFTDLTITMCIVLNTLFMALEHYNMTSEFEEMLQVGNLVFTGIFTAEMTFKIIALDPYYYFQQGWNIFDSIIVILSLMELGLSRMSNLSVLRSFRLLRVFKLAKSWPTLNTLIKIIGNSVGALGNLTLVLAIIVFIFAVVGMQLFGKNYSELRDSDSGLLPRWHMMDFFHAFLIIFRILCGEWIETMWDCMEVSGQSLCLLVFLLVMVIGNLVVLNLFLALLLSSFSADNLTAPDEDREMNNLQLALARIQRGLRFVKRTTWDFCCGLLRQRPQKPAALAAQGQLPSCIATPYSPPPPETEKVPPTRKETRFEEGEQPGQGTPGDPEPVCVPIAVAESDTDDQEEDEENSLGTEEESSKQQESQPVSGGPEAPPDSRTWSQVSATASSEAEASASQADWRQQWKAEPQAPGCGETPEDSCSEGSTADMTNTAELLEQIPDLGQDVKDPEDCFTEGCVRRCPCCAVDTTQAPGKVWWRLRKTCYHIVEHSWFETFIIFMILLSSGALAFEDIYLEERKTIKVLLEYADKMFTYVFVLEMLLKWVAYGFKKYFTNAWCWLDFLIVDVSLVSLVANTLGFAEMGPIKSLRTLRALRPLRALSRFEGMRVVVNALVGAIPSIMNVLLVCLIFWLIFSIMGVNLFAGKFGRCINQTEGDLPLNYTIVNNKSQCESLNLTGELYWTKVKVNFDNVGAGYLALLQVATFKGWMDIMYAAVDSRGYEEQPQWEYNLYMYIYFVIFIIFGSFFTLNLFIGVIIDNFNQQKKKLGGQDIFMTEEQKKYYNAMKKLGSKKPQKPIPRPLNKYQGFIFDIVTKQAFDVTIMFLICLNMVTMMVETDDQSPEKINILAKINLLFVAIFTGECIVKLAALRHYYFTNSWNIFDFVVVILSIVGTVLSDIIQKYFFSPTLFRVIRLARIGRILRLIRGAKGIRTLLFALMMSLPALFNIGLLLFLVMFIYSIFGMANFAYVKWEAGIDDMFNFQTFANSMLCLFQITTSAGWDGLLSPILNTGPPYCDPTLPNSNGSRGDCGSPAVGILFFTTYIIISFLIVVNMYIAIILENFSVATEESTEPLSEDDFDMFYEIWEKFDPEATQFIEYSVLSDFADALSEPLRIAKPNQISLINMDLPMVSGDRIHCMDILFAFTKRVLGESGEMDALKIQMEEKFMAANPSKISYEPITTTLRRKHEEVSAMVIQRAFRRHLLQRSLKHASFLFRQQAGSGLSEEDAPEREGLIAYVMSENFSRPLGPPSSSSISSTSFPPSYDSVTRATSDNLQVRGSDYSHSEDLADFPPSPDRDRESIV

Compound | ratio of Nav 1.5:Nav 1.7 potency, determined by PatchXpress measurement [1] | IC50 [2]
C[C@H](c1ccccc1C#CC(C)(C)N)n1c(=O)oc2cc(S(=O)(=O)Nc3ncns3)c(F)cc21 [Compound 17-10, 3-{(1R)-1-[2-(3-amino-3-methylbut-1-yn-1-yl)phenyl]ethyl}-5-fluoro-2-oxo-N-1,2,4-thiadiazol-5-yl-2,3-dihydro-1,3-benzoxazole-6-sulfonamide] | 534 | 56 nM
CNCC#Cc1ccccc1[C@@H](C)n1c(=O)oc2cc(S(=O)(=O)Nc3ncns3)c(F)cc21 [Compound 17-11, 5-fluoro-3-[(1R)-1-{2-[3-(methylamino)prop-1-yn-1-yl]phenyl}ethyl]-2-oxo-N-1,2,4-thiadiazol-5-yl-2,3-dihydro-1,3-benzoxazole-6-sulfonamide] | 589 | 51 nM
C[C@H](O)C#Cc1ccccc1[C@@H](C)n1c(=O)oc2cc(S(=O)(=O)Nc3ncns3)c(F)cc21 [Compound 17-12, 5-fluoro-3-[(1R)-1-{2-[(3S)-3-hydroxybut-1-yn-1-yl]phenyl}ethyl]-2-oxo-N-1,2,4-thiadiazol-5-yl-2,3-dihydro-1,3-benzoxazole-6-sulfonamide] | 262 | 37 nM
C[C@H](c1ccccc1C#CCC1CCCN1)n1c(=O)oc2cc(S(=O)(=O)Nc3ncns3)c(F)cc21 (stereo partly drawn) [Compound 17-13, 5-fluoro-2-oxo-3-{(1R)-1-[2-(3-pyrrolidin-2-ylprop-1-yn-1-yl)phenyl]ethyl}-N-1,2,4-thiadiazol-5-yl-2,3-dihydro-1,3-benzoxazole-6-sulfonamide] | 789 | 34 nM
C[C@H](c1ccccc1C#CC1CCNC1)n1c(=O)oc2cc(S(=O)(=O)Nc3ncns3)c(F)cc21 (stereo partly drawn) [Compound 17-14, 5-fluoro-2-oxo-3-{(1R)-1-[2-(pyrrolidin-3-ylethynyl)phenyl]ethyl}-N-1,2,4-thiadiazol-5-yl-2,3-dihydro-1,3-benzoxazole-6-sulfonamide] | 1055 | 34 nM
C[C@H](c1ccccc1C#CCC(C)(C)N)n1c(=O)oc2cc(S(=O)(=O)Nc3ncns3)c(F)cc21 [Compound 17-15, 3-{(1R)-1-[2-(4-amino-4-methylpent-1-yn-1-yl)phenyl]ethyl}-5-fluoro-2-oxo-N-1,2,4-thiadiazol-5-yl-2,3-dihydro-1,3-benzoxazole-6-sulfonamide] | 1566 | 32 nM
C[C@H](c1ccccc1C#CC1CNC1)n1c(=O)oc2cc(S(=O)(=O)Nc3ncns3)c(F)cc21 [Compound 17-16, 3-{(1R)-1-[2-(azetidin-3-ylethynyl)phenyl]ethyl}-5-fluoro-2-oxo-N-1,2,4-thiadiazol-5-yl-2,3-dihydro-1,3-benzoxazole-6-sulfonamide] | 973 | 31 nM
C[C@H](c1ccccc1C#C[C@@H]1CCCN1)n1c(=O)oc2cc(S(=O)(=O)Nc3ncns3)c(F)cc21 [Compound 17-17, 5-fluoro-2-oxo-3-[(1R)-1-{2-[(2S)-pyrrolidin-2-ylethynyl]phenyl}ethyl]-N-1,2,4-thiadiazol-5-yl-2,3-dihydro-1,3-benzoxazole-6-sulfonamide] | 1034 | 29 nM
C[C@H](c1ccccc1C#CCN1CCC1)n1c(=O)oc2cc(S(=O)(=O)Nc3ncns3)c(F)cc21 [Compound 17-18, 3-{(1R)-1-[2-(3-azetidin-1-ylprop-1-yn-1-yl)phenyl]ethyl}-5-fluoro-2-oxo-N-1,2,4-thiadiazol-5-yl-2,3-dihydro-1,3-benzoxazole-6-sulfonamide] | 1085 | 28 nM
CC(N)C#Cc1ccccc1[C@@H](C)n1c(=O)oc2cc(S(=O)(=O)Nc3ncns3)c(F)cc21 (stereo partly drawn) [Compound 17-19, 3-{(1R)-1-[2-(3-aminobut-1-yn-1-yl)phenyl]ethyl}-5-fluoro-2-oxo-N-1,2,4-thiadiazol-5-yl-2,3-dihydro-1,3-benzoxazole-6-sulfonamide] | 1390 | 22 nM
C[C@H](c1ccccc1C#CCN)n1c(=O)oc2cc(S(=O)(=O)Nc3ncns3)c(F)cc21 [Compound 17-20, 3-{(1R)-1-[2-(3-aminoprop-1-yn-1-yl)phenyl]ethyl}-5-fluoro-2-oxo-N-1,2,4-thiadiazol-5-yl-2,3-dihydro-1,3-benzoxazole-6-sulfonamide] | 2324 | 13 nM
C[C@H](c1ccccc1C#C[C@H]1CCCN1)n1c(=O)oc2cc(S(=O)(=O)Nc3ncns3)c(F)cc21 [Compound 17-21, 5-fluoro-2-oxo-3-[(1R)-1-{2-[(2R)-pyrrolidin-2-ylethynyl]phenyl}ethyl]-N-1,2,4-thiadiazol-5-yl-2,3-dihydro-1,3-benzoxazole-6-sulfonamide] | 2344 | 13 nM
C[C@H](c1ccccc1C#CC1CCCCN1)n1c(=O)oc2cc(S(=O)(=O)Nc3ncns3)c(F)cc21 (stereo partly drawn) [Compound 17-22, 5-fluoro-2-oxo-3-{(1R)-1-[2-(piperidin-2-ylethynyl)phenyl]ethyl}-N-1,2,4-thiadiazol-5-yl-2,3-dihydro-1,3-benzoxazole-6-sulfonamide] | 1456 | 13 nM
C[C@H](c1ccccc1C#CC1(N)CCCCC1)n1c(=O)oc2cc(S(=O)(=O)Nc3ncns3)c(F)cc21 [Compound 17-23, 3-[(1R)-1-{2-[(1-aminocyclohexyl)ethynyl]phenyl}ethyl]-5-fluoro-2-oxo-N-1,2,4-thiadiazol-5-yl-2,3-dihydro-1,3-benzoxazole-6-sulfonamide] | 2477 | 12 nM
C[C@H](c1ccccc1CN1CCCC1)n1c(=O)oc2cc(S(=O)(=O)Nc3ncns3)c(F)cc21 [Compound 18-2, (R)-5-fluoro-2-oxo-3-(1-(2-(pyrrolidin-1-ylmethyl)phenyl)ethyl)-N-(1,2,4-thiadiazol-5-yl)-2,3-dihydrobenzo[d]oxazole-6-sulfonamide] | 446 | 24 nM
C[C@H](c1ccccc1CN1CCC(F)(F)C1)n1c(=O)oc2cc(S(=O)(=O)Nc3ncns3)c(F)cc21 [Compound 18-3, 3-[(1R)-1-{2-[(3,3-difluoropyrrolidin-1-yl)methyl]phenyl}ethyl]-5-fluoro-2-oxo-N-1,2,4-thiadiazol-5-yl-2,3-dihydro-1,3-benzoxazole-6-sulfonamide] | 15 | 768 nM
C[C@H](c1ccccc1CN1CCC(F)C1)n1c(=O)oc2cc(S(=O)(=O)Nc3ncns3)c(F)cc21 (stereo partly drawn) [Compound 18-4, 5-fluoro-3-[(1R)-1-{2-[(3-fluoropyrrolidin-1-yl)methyl]phenyl}ethyl]-2-oxo-N-1,2,4-thiadiazol-5-yl-2,3-dihydro-1,3-benzoxazole-6-sulfonamide] | 82 | 132 nM
C[C@H](c1ccccc1CN(C)C)n1c(=O)oc2cc(S(=O)(=O)Nc3ncns3)c(F)cc21 [Compound 18-5, 3-[(1R)-1-{2-[(dimethylamino)methyl]phenyl}ethyl]-5-fluoro-2-oxo-N-1,2,4-thiadiazol-5-yl-2,3-dihydro-1,3-benzoxazole-6-sulfonamide] | 525 | 13 nM
